Results published in US11478552B2, “Hybrid carriers for nucleic acid cargo” (CureVac AG, priority 2016, dated 2022).

Experiments:
HepG2 cells = experiment: Transfection of HepG2 cells with GpLuc mRNA, luminescence of supernatant (Example 3); assay type: cell-based; settings: small amounts of lipidoid added to PB83, GpLuc mRNA, 24 h post transfection
Method: For luminescence analysis, a volume of 10 μL supernatant was transferred to a 96 well plate for GpLuc measurement. Then, coelenterazine working solution (100 μM) was prepared (1 mL coelenterazine stock solution (4.72 mM in EtOH) in 49 mL phosphate buffered saline supplemented with 5 mM NaCl, pH 7.2). A volume of 100 μL coelenterazine working solution was used as a substrate for GpLuc and measured after 5 seconds in a commercially available microplate reader.
The experiments were conducted as described in the previous Example, except that HepG2 cells were transfected instead of Sol8 cells. A volume of 0.2 mL HepG2 cells (10.000 cells) were seeded in a 96 well tissue culture plate. After removing the medium from each well, 100 μL RPMI 1640 medium (with 1% Penicillin and 1% Streptomycin, 1% L-Glutamin) was added to each well. Afterwards, HepG2 cells were transfected with 100 μL transfection mix (in triplicates) of polymer-lipidoid mRNA complexes and respective controls (in triplicates), and cells were incubated at 37° C. and 5% CO2 for 90 minutes. After incubation, 150 μL medium was exchanged with 150 μL fresh RPMI 1640 medium supplemented with 10% fetal calf serum. Twenty-four hours post transfection, 10 μL of supernatant of each well was extracted and used for further luminescence analysis.

[1] = test system: differentiated Sol8 cells; experiment: Transfection of Sol8 muscle cells with GpLuc mRNA, luminescence of supernatant (Example 2); assay type: cell-based, C3H mouse; settings: small amounts of lipidoid added to PB83, GpLuc mRNA (SEQ ID NO: 12), 24 h post transfection
Method: Sol8 is a myogenic cell line isolated by Daubas et al. from primary cultures of soleus muscle taken from the leg of a normal C3H mouse. A volume of 0.2 mL Sol8 cells (20.000 cells) were seeded in 96 well glass bottom plates (Softwell Hydrogel coated with collagen, elasticity E=12 kPa) on day 1. After removing the medium from each well, 100 μL DMEM medium (with 2% horse serum) was added to each well. Afterwards, on day 2, Sol8 cells were transfected with 100 μL transfection mix (in triplicates) of polymer-lipidoid complexes prepared according to Example 1) and respective controls (in triplicates), and cells were incubated at 37° C. and 5% CO2 for 120 minutes. After incubation, 150 μL medium was exchanged with 150 μL fresh DMEM medium supplemented with 10% fetal calf serum. Twenty-four hours post transfection, i.e. on day 3, 10 μL of supernatant of each well was extracted and used for further luminescence analysis, which was performed as described below. […]
For luminescence analysis, a volume of 10 μL supernatant was transferred to a 96 well plate for GpLuc measurement. […] A volume of 100 μL coelenterazine working solution was used as a substrate for GpLuc and measured after 5 seconds in a commercially available microplate reader.

CCCCCCCCCCC(O)C[N+](C)(C)CCN(CC[N+](C)(C)CC(O)CCCCCCCCCC)CC[N+](C)(C)CC(O)CCCCCCCCCC (centres unmarked) [3-C12-OH-cat]
transfection efficiency (GpLuc luminescence) (HepG2 cells): profound increase of transfection efficiency

CCCCCCCCCCC(O)CNCCN(CCNCC(O)CCCCCCCCCC)CCNCC(O)CCCCCCCCCC (centres unmarked) [3-C12-OH]
transfection efficiency (GpLuc luminescence) [1]: profound increase of transfection efficiency | transfection efficiency (GpLuc luminescence) (HepG2 cells): profound increase of transfection efficiency

CCCCCCCCCCCCNCCN(CCNCCCCCCCCCCCC)CCNCCCCCCCCCCCC [3-C12]
transfection efficiency (GpLuc luminescence) [1]: profound increase of transfection efficiency | transfection efficiency (GpLuc luminescence) (HepG2 cells): profound increase of transfection efficiency
